# From US20130296434A1, “FORMULATIONS AND METHODS FOR TREATING AMYLOIDOSIS” (Kiacta Sarl, priority 2005, published 2013)
# Where two headings read alike, the source gives them in different places.
# Tests used:
# [1] = Pharmacokinetics of PDS after single and multiple oral administration in AA amyloidosis patients; type: in vivo; conditions: human, plasma; for AUC(0-t) / Cmax / half-life: po; for half-life: multiple dose oral administration
# Description: In the following examples, terms are as defined below. The pharmacokinetic parameters were derived by non-compartmental analysis using WinNonlin® (Pharsight Corp., Mountain View, Calif., USA). • Cmax—the maximum observed plasma concentration. • Tmax—the time of occurrence of Cmax. • AUC0-t—the area under the plasma concentration versus time curve from time zero to the last sampling time at which concentrations were at or above the limit of quantification, calculated by the linear trapezoidal rule. • AUC∞—the area under the plasma concentrations versus time curve from time zero to infinity, calculated from AUC0-t+(Clast/λz), where Clast is the last observed quantifiable concentration and λz is the apparent terminal rate constant. • t1/2 the apparent terminal half-life, calculated from ln 2/λz
# The safety, efficacy and pharmacokinetics of PDS after single and multiple oral administration in subjects with AA amyloidosis is determined. This is a multicenter, multinational, randomized, double-blind, placebo-controlled, and parallel-design study to assess the pharmacokinetic profile of single and repeated doses of PDS. Dosing depends on the severity or renal impairment in a subject: subjects having creatinine clearance (ClCr)>80 mL/min receive 1200 mg BID; for ClCr between 30 and 80 mL/min, the subject receives 800 mg BID; and for ClCr between 20 and 30 mL/min, the subject receives 400 mg BID. If ClCr decreases to the next lower range level, the dose regimen is adjusted accordingly. PDS is administered as a single oral dose for a subset of AA amyloidosis patients on Month 0 and 24 visits. Following the single administration on Month 0, PDS is administered twice daily for 24 months. Blood samples are collected through 24 hours after the doses on Month 0 and 24, and through 8 hours after the doses on Month 4, 8, 12 visits. Plasma concentrations of PDS are determined using validated HPLC methods. Following multiple dose oral administration of PDS, the range of accumulation across subjects is 1.75 to 3.44. Based on the accumulation factor, the mean T1/2 calculated is 15 hours with a range of 10 to 24 hours.
# [2] = test system: subjects having secondary (AA) amyloidosis; experiment: Randomized, double-blind, placebo-controlled 24-month efficacy and safety study of PDS in secondary (AA) amyloidosis; type: in vivo, human
# Protocol: A multicenter, multinational, randomized, double-blind, placebo-controlled, and parallel-design study to assess the efficacy and safety of 1,3-propanedisulfonic acid disodium salt (PDS) in subjects having secondary (AA) amyloidosis is conducted. […] If ClCr decreases or increases to the next lower or higher range level, the dose regimen is adjusted accordingly. Subject medication is administered orally (capsule). Each patient is evaluated on 16 occasions, including on-site visits at months 0 (baseline), 1, 4, 8, 12, 16, 20 and 24.
# The volume of urine is recorded in the case report form at study site and an aliquot of urine is sent to the central laboratory for determination of urinary creatinine. A blood sample is collected to measure serum creatinine. The creatinine clearance (ClCr) is calculated using the following formula and recorded in the case report form: […]
# The creatinine clearance normalized for body surface area is calculated by dividing the creatinine clearance by the body surface area.
# Subjects are classified into three categories based on a composite assessment of renal function at the end of the 24 month treatment period compared to baseline. […] Subjects are classified as “improved” if the following clinical milestones of improvement are met: ≧50% increase in ClCr and no clinical milestones of worsening. Subjects are classified as “stable” if none of the clinical milestones of worsening or improvement are met.
# All subjects are categorized according to the evolution of their disease (“worse”, “stable”, or “improved”). This constitutes the primary efficacy endpoint for the study and is analyzed in the Intent-to-Treat (ITT) population according to two pre-specified statistical methodologies: 1) the Cochran-Mantel-Haenszel row mean scores test (CMH test) to compare the percentage of subjects who reach each category at the end of the study in comparison to their status at Baseline, and 2) a proportional hazards regression model (Cox analysis) to compare between treatment groups both the number of first “worse” events, as well as when they occur, thus making more use of all available data. Both methodologies are adjusted for the stratification of nephrotic status at Baseline (nephrotic vs non-nephrotic) as pre-specified.
# The primary efficacy endpoint is a composite assessment of clinical improvement/worsening of renal function. At the end of the study, the subjects are classified into three categories, “Worse” and death (all causes), “Stable”, or “Improved”. […] The subjects are classified as “stable” if none of the clinical milestones of worsening or improvement are met. […] The term “End of Study” is defined as Month 24 for subjects who completed the study and as the last available measurement for the subjects who discontinued early.
# The secondary efficacy endpoints are an assessment of clinical improvement/worsening of both renal and gastrointestinal functions. At the end of the study, subjects are classified into three categories based on their condition: worse, stable, or improved.
# This parameter will be normalized for body surface area and the least-squares estimate of the within-subject slope will be calculated using all available creatinine clearance measurements. Although the study is for 2 years, the slope will be expressed as an annual rate of change.
# Change from baseline to End of Study in Proteinuria and Creatinine Clearance will be analyzed as a secondary efficacy endpoint. The End of Study is defined as Month 24 for subjects who completed and as the last available visit for subjects who discontinued early. At Screening, proteinuria, creatinine clearance, and serum creatinine are to be collected from two distinct assessments which are to have been at least 1 week apart and within 3 months prior to study entry (Baseline visit). For the creatinine clearance parameter, the normalized value will be used.
# [3] = End of the Study, compared to placebo
# [4] = composite renal assessment at end of 24 month treatment, 400-1200 mg BID by ClCr, p value=0.06
smiles,measurement,setting,value
"O=S(=O)([O-])CCCS(=O)(=O)[O-].[Na+].[Na+] [PDS, 1,3-propanedisulfonic acid, disodium salt]",Tmax,"[1]; Dose 400 (mg BID), Month 0 single oral dose, n = 2, mean",3 h
same,Tmax,"[1]; Dose 400 (mg BID), Month 24 repeated oral doses, n = 3, mean",1.83 h
same,Tmax,"[1]; Dose 800 (mg BID), Month 0 single oral dose, n = 5, mean",2.95 h
same,Tmax,"[1]; Dose 800 (mg BID), Month 24 repeated oral doses, n = 4, mean",1.85 h
same,Tmax,"[1]; Dose 1200 (mg BID), Month 0 single oral dose, n = 4, mean",0.69 h
same,Tmax,"[1]; Dose 1200 (mg BID), Month 24 repeated oral doses, n = 1",0.68 h
same,AUC(0-t),"[1]; 400 mg BID, Month 24 repeated oral doses, n = 3, mean, read-out: AUC(0-12)",17600 ng·h/mL
same,AUC(0-t),"[1]; 400 mg BID, Month 24 repeated oral doses, n = 3, mean, read-out: AUC(0-tlast)",25700 ng·h/mL
same,AUC(0-t),"[1]; 400 mg, Dose 400 (mg BID), Month 0 single oral dose, n = 2, mean, read-out: AUC(0-12)",7410 ng·h/mL
same,AUC(0-t),"[1]; 400 mg, Dose 400 (mg BID), Month 0 single oral dose, n = 2, mean, read-out: AUC(0-tlast)",11700 ng·h/mL
same,Cmax,"[1]; 400 mg, Dose 400 (mg BID), Month 24 repeated oral doses, n = 3, mean",2160 ng/mL
same,Cmax,"[1]; 400 mg, Dose 400 (mg BID, ClCr 20-30 mL/min), Month 0 single oral dose, n = 2, mean",841 ng/mL
same,Cmax,"[1]; 800 mg BID, Month 24 repeated oral doses, n = 4, mean",1900 ng/mL
same,AUC(0-t),"[1]; 800 mg BID, Month 24 repeated oral doses, n = 4, mean, read-out: AUC(0-12)",13700 ng·h/mL
same,AUC(0-t),"[1]; 800 mg BID, Month 24 repeated oral doses, n = 4, mean, read-out: AUC(0-tlast)",21200 ng·h/mL
same,AUC(0-t),"[1]; 800 mg, Dose 800 (mg BID), Month 0 single oral dose, n = 5, mean, read-out: AUC(0-12)",5950 ng·h/mL
same,AUC(0-t),"[1]; 800 mg, Dose 800 (mg BID), Month 0 single oral dose, n = 5, mean, read-out: AUC(0-tlast)",9810 ng·h/mL
same,Cmax,"[1]; 800 mg, Dose 800 (mg BID, ClCr 30-80 mL/min), Month 0 single oral dose, n = 5, mean",812 ng/mL
same,Cmax,"[1]; 1200 mg BID, Month 24 repeated oral doses, n = 1",637 ng/mL
same,AUC(0-t),"[1]; 1200 mg BID, Month 24 repeated oral doses, n = 1, read-out: AUC(0-12)",4930 ng·h/mL
same,AUC(0-t),"[1]; 1200 mg BID, Month 24 repeated oral doses, n = 1, read-out: AUC(0-tlast)",9140 ng·h/mL
same,AUC(0-t),"[1]; 1200 mg, Dose 1200 (mg BID), Month 0 single oral dose, n = 4, mean, read-out: AUC(0-12)",4210 ng·h/mL
same,AUC(0-t),"[1]; 1200 mg, Dose 1200 (mg BID), Month 0 single oral dose, n = 4, mean, read-out: AUC(0-tlast)",5630 ng·h/mL
same,Cmax,"[1]; 1200 mg, Dose 1200 (mg BID, ClCr >80 mL/min), Month 0 single oral dose, n = 4, mean",867 ng/mL
same,half-life,[1]; read-out: mean T1/2 calculated based on the accumulation factor (converted),15 h
same,half-life,[1]; read-out: range of T1/2 calculated based on the accumulation factor,10 to 24 h
same,"mean difference in slope of creatinine clearance, treated vs. placebo",[2]; End of the Study,4.7 mL/min/1.73 m^2/year
same,median time to the first worse event,"[2]; End of the Study, PDS treated subjects",14.5 months
same,reduction in the rate of loss of renal function (slope of creatinine clearance over time),"[2]; End of the Study, PDS-treated vs placebo",30.1%
same,reduction of risk of dialysis/ESRD,[2]; [3],46%
same,reduction of risk of doubling of serum creatinine,[2]; [3],59%
same,reduction of risk of ≧50% decrease in creatinine clearance,[2]; [3],52%
same,"median time to dialysis, longer than placebo","[2]; End of the Study, patients progressing to dialysis",5.3 months
same,"median time to doubling of serum creatinine, longer than placebo","[2]; End of the Study, patients with a doubling of SCr",3.6 months
same,"median time to at least a 50% decrease in creatinine clearance, longer than placebo","[2]; End of the Study, patients with a ≧50% decrease in CrCl",4.4 months
same,"risk of any worse event of renal decline or all-cause mortality, relative to the risk for placebo","[2]; End of the Study, printed as reduction to this % of the risk for placebo",42%
same,"median time to the first worse event, longer than placebo","[2]; End of the Study, treated vs placebo",6.4 months
same,"creatinine clearance, Change from End of Study to Baseline, Median","[2]; PDS group N = 89, n 85",−11.35 mL/min/1.73 m^2
same,"slope of creatinine clearance normalized for body surface area, Mean (S.E.)","[2]; PDS group N = 89, n 85, annual rate of change",−10.9 (5.1) mL/min/1.73 m^2/year
same,"slope of creatinine clearance normalized for body surface area, Median","[2]; PDS group N = 89, n 85, annual rate of change, P-value vs placebo 0.025",−5.9 mL/min/1.73 m^2/year
same,"creatinine clearance, Change from End of Study to Baseline, Mean (S.E.)","[2]; PDS group N = 89, n 85, p-value vs placebo 0.058",−14.68 (4.19) mL/min/1.73 m^2
same,fewer subjects classified as worse compared to placebo,[2]; [4],13.4%
same,more subjects stable or improved compared to placebo,[2]; [4],13.4%
same,"estimated difference in CrCl change, PDS vs placebo",[2]; end of the study,7.7 mL/min/1.73 m^2
same,mean difference in CrCl (baseline to end of study),"[2]; end of the study, PDS treated subjects",−14.7±4.2 mL/min/1.73 m^2
